# Laboratory results from patent US20260325561A1, “4'-SUBSTITUTED NUCLEOSIDES AND NUCLEOTIDES AS ANTIVIRAL AGENTS” (THE SCRIPPS RESEARCH INSTITUTE, priority 2023, published 2026).
# How the values were obtained:
# DENV-2 = test: microbe, parasite or virus in culture; assay type: cell-based, DENV-2 16681; conditions: Dengue virus, DENV2, HepG2, 24 h, read-out: DENV-2 / HepG2 EC50
# SARS-CoV-2 = test: microbe, parasite or virus in culture; assay type: cell-based, SARS-CoV-2 strain USA-WA1/2020; conditions: Severe acute respiratory syndrome coronavirus 2, HeLa-ACE2, 24 h, read-out: SARS-CoV-2 / HeLa-ACE2 EC50
# RSV A2 = test: microbe, parasite or virus in culture; assay type: cell-based; conditions: human respiratory syncytial virus, HEp-2, 72 h, read-out: RSV A2 / Hep2 EC50
# HRV 14 = test: microbe, parasite or virus in culture; assay type: cell-based, Human Rhinovirus 14 strain 1059; conditions: Rhinovirus B, H1-HeLa, 48 h, read-out: HRV / H1 HeLa B 14 EC50
# HRV 16 = test: microbe, parasite or virus in culture; assay type: cell-based, Human Rhinovirus 16 strain 11757; conditions: Rhinovirus A, H1-HeLa, 48 h, read-out: HRV / H1 HeLa A16 EC50
# in vitro [1] = conditions: human, hepg2 cells
# in vitro [2] = conditions: human, hela-ace2 cells
# in vitro [3] = conditions: human, hep2 cells
# in vitro [4] = conditions: human, h1 hela cells
SMILES,EC50 (DENV-2),EC50 (SARS-CoV-2),EC50 (RSV A2),EC50 (HRV 14),EC50 (HRV 16),CC50 at 72 h (in vitro [1]),CC50 at 24 h (in vitro [2]),CC50 (in vitro [3]),CC50 (in vitro [4])
"C[C@]1(O)[C@H](n2ccc3c(N)ncnc32)O[C@](F)(CO)[C@H]1O [Example 10, (2S,3S,4R,5R)-5-(4-amino-7H-pyrrolo[2,3-d]pyrimidin-7-yl)-2-fluoro-2-(hydroxymethyl)-4-methyltetrahydrofuran-3,4-diol]",> 10 µM,> 10 µM,> 10 µM,> 10 µM,> 10 µM,> 99 µM,> 99 µM,> 99 µM,> 99 µM
"C#Cc1nc(N)c2ncn([C@@H]3O[C@](F)(CO)[C@@H](O)[C@H]3O)c2n1 [Example 18, (2S,3S,4R,5R)-5-(6-amino-2-ethynyl-9H-purin-9-yl)-2-fluoro-2-(hydroxymethyl)tetrahydrofuran-3,4-diol]",> 10 µM,> 10 µM,> 10 µM,> 10 µM,> 10 µM,> 99 µM,> 99 µM,> 99 µM,> 99 µM
"OC[C@@]1(F)O[C@@H](n2ccc3cncnc32)[C@H](O)[C@@H]1O [Example 23, (2S,3S,4R,5R)-2-fluoro-2-(hydroxymethyl)-5-(7H-pyrrolo[2,3-d]pyrimidin-7-yl)tetrahydrofuran-3,4-diol]",0.1 to 1 µM,1 to 10 µM,1 to 10 µM,1 to 10 µM,1 to 10 µM,1 to 10 µM,1 to 10 µM,10 to 99 µM,10 to 99 µM
"N#Cc1cn([C@@H]2O[C@](F)(CO)[C@@H](O)[C@H]2O)c2ncnc(N)c12 [Example 26, 4-amino-7-((2R,3R,4S,5S)-5-fluoro-3,4-dihydroxy-5-(hydroxymethyl)tetrahydrofuran-2-yl)-7H-pyrrolo[2,3-d]pyrimidine-5-carbonitrile]",< 0.1 µM,0.1 to 1 µM,< 0.1 µM,> 10 µM,> 10 µM,< 1 µM,< 1 µM,< 1 µM,1 to 10 µM
"Nc1nc(Cl)c2ccn([C@@H]3O[C@](F)(CO)[C@@H](O)[C@H]3O)c2n1 [Example 27, (2S,3S,4R,5R)-5-(2-amino-4-chloro-7H-pyrrolo[2,3-d]pyrimidin-7-yl)-2-fluoro-2-(hydroxymethyl)tetrahydrofuran-3,4-diol]",> 10 µM,> 10 µM,> 10 µM,> 10 µM,> 10 µM,10 to 99 µM,10 to 99 µM,10 to 99 µM,10 to 99 µM
"Cc1nc(Cl)c2ccn([C@@H]3O[C@](F)(CO)[C@@H](O)[C@H]3O)c2n1 [Example 29, (2S,3S,4R,5R)-5-(4-chloro-2-methyl-7H-pyrrolo[2,3-d]pyrimidin-7-yl)-2-fluoro-2-(hydroxymethyl)tetrahydrofuran-3,4-diol]",> 10 µM,> 10 µM,> 10 µM,> 10 µM,> 10 µM,> 99 µM,> 99 µM,–,> 99 µM
"NC(=O)c1cc([C@@H]2O[C@](F)(COC(=O)c3ccccc3)[C@@H](O)[C@H]2O)n2ncnc(N)c12 [Example 34, ((2S,3S,4R,5S)-5-(4-amino-5-carbamoylpyrrolo[2,1-f][1,2,4]triazin-7-yl)-2-fluoro-3,4-dihydroxytetrahydrofuran-2-yl)methyl benzoate]",1 to 10 µM,> 10 µM,0.1 to 1 µM,> 10 µM,> 10 µM,< 1 µM,1 to 10 µM,< 1 µM,1 to 10 µM
"COc1ncnc2c1ccn2[C@@H]1O[C@](F)(CO)[C@@H](O)[C@H]1O [Example 41, (2S,3S,4R,5R)-2-fluoro-2-(hydroxymethyl)-5-(4-methoxy-7H-pyrrolo[2,3-d]pyrimidin-7-yl)tetrahydrofuran-3,4-diol]",> 10 µM,> 10 µM,> 10 µM,> 10 µM,> 10 µM,10 to 99 µM,10 to 99 µM,10 to 99 µM,10 to 99 µM
"Nc1nc(Cl)nc2c1ncn2[C@@H]1O[C@](F)(CO)[C@@H](O)[C@H]1O [Example 43, (2S,3S,4R,5R)-5-(6-amino-2-chloro-9H-purin-9-yl)-2-fluoro-2-(hydroxymethyl)tetrahydrofuran-3,4-diol]",> 10 µM,> 10 µM,> 10 µM,> 10 µM,> 10 µM,10 to 99 µM,> 99 µM,> 99 µM,10 to 99 µM
"CC(C)OC(=O)[C@H](C)N[P@@](=O)(OC[C@@]1(F)O[C@@H](n2ccc3c(N)ncnc32)[C@H](O)[C@@H]1O)Oc1ccccc1 [Example 49, isopropyl ((R)-(((2S,3S,4R,5R)-5-(4-amino-7H-pyrrolo[2,3-d]pyrimidin-7-yl)-2-fluoro-3,4-dihydroxytetrahydrofuran-2-yl)methoxy)(phenoxy)phosphoryl)-L-alaninate]",1 to 10 µM,> 10 µM,–,1 to 10 µM,> 10 µM,> 99 µM,> 99 µM,–,> 99 µM
"C[C@]1(Cl)[C@H](n2cnc3c(=O)[nH]c(N)nc32)O[C@](F)(CO)[C@H]1O [Example 62, 2-amino-9-((2R,3R,4R,5S)-3-chloro-5-fluoro-4-hydroxy-5-(hydroxymethyl)-3-methyltetrahydrofuran-2-yl)-1,9-dihydro-6H-purin-6-one]",0.1 to 1 µM,> 10 µM,> 10 µM,> 10 µM,–,10 to 99 µM,> 99 µM,10 to 99 µM,10 to 99 µM
"CCOc1nc(N)nc2c1ncn2[C@@H]1O[C@](F)(COP(=O)(N[C@@H](C)C(=O)OC(C)C)Oc2ccccc2)[C@@H](O)[C@@]1(C)Cl (stereo partly drawn) [Example 64, isopropyl ((((2S,3R,4R,5R)-5-(2-amino-6-ethoxy-9H-purin-9-yl)-4-chloro-2-fluoro-3-hydroxy-4-methyltetrahydrofuran-2-yl)methoxy)(phenoxy)phosphoryl)-L-alaninate]",1 to 10 µM,> 10 µM,> 10 µM,> 10 µM,–,10 to 99 µM,10 to 99 µM,10 to 99 µM,10 to 99 µM
"C[C@H](NP(=O)(OC[C@@]1(F)O[C@@](C#N)(c2cnc3c(N)ncnn23)[C@H](O)[C@@H]1O)Oc1cccc2ccccc12)C(=O)OCC(C)(C)C (stereo partly drawn) [Example 65, neopentyl ((((2S,3S,4R,5R)-5-(4-aminoimidazo[2,1-f][1,2,4]triazin-7-yl)-5-cyano-2-fluoro-3,4-dihydroxytetrahydrofuran-2-yl)methoxy)(naphthalen-1-yloxy)phosphoryl)-L-alaninate]",1 to 10 µM,1 to 10 µM,> 10 µM,> 10 µM,–,1 to 10 µM,10 to 99 µM,10 to 99 µM,10 to 99 µM
"CCOc1nc(N)nc2c1ncn2[C@@H]1O[C@](F)(CO[P@@](=O)(N[C@@H](C)C(=O)OC(C)C)Oc2ccccc2)[C@@H](O)[C@]1(F)Cl [Example 67, isopropyl ((((2S,3R,4S,5R)-5-(2-amino-6-ethoxy-9H-purin-9-yl)-4-chloro-2,4-difluoro-3-hydroxytetrahydrofuran-2-yl)methoxy)(phenoxy)phosphoryl)-L-alaninate]",1 to 10 µM,> 10 µM,> 10 µM,1 to 10 µM,–,10 to 99 µM,10 to 99 µM,10 to 99 µM,10 to 99 µM
"CCOc1nc(N)nc2c1ncn2[C@@H]1O[C@](F)(CO)[C@@H](O)[C@]1(F)Br [Example 68, (2S,3R,4S,5R)-5-(2-amino-6-ethoxy-9H-purin-9-yl)-4-bromo-2,4-difluoro-2-(hydroxymethyl)tetrahydrofuran-3-ol]",> 10 µM,> 10 µM,> 10 µM,> 10 µM,–,10 to 99 µM,> 99 µM,10 to 99 µM,10 to 99 µM
"C#C[C@]1(O)[C@H](n2ccc3c(NCCC)ncnc32)O[C@](F)(CO)[C@H]1O [Example 70, (2S,3S,4R,5R)-4-ethynyl-2-fluoro-2-(hydroxymethyl)-5-(4-(propylamino)-7H-pyrrolo[2,3-d]pyrimidin-7-yl)tetrahydrofuran-3,4-diol]",> 10 µM,> 10 µM,> 10 µM,> 10 µM,–,10 to 99 µM,> 99 µM,10 to 99 µM,10 to 99 µM
"CSc1ncnc2c1ccn2[C@@H]1O[C@](F)(CO)[C@@H](O)[C@H]1O [Example 72, (2S,3S,4R,5R)-2-fluoro-2-(hydroxymethyl)-5-(4-(methylthio)-7H-pyrrolo[2,3-d]pyrimidin-7-yl)tetrahydrofuran-3,4-diol]",1 to 10 µM,1 to 10 µM,> 10 µM,> 10 µM,–,10 to 99 µM,10 to 99 µM,10 to 99 µM,> 99 µM
